Counter-ions that a name gives are not always drawn. Like-named read-outs stand apart in the source and are kept apart here.
What was measured:
MPO [1] = biological target: T1, MPO (Homo sapiens, UniProt P05164); test: Myeloperoxidase inhibition (MPO) assay, taurine chloramine production by the MPO/H2O2/Cl- system; format: biochemical; details: for 1/IC50: inhibition capability expressed as 1/IC50
T1 construct: made in house
T1 sequence (P05164 49-745): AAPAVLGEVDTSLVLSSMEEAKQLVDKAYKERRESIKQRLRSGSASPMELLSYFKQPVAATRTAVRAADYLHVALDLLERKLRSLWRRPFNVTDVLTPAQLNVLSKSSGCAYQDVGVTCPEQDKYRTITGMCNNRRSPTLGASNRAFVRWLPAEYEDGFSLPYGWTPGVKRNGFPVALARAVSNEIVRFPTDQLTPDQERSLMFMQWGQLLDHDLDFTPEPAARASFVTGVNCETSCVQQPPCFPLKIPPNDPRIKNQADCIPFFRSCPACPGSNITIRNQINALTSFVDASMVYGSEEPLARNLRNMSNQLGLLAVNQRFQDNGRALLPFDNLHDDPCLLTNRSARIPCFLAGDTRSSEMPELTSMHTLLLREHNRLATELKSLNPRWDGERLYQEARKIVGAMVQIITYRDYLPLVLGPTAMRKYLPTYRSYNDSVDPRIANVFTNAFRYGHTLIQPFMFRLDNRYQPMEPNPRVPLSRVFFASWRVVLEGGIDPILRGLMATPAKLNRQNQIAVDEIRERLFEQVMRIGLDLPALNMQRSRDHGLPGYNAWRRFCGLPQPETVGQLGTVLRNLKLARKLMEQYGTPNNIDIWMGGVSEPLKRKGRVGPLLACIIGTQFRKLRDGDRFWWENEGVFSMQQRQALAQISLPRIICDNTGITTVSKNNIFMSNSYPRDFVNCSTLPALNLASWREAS
Text: The assay was based on the production of taurine chloramine produced by the MPO/H2O2/Cl^− system in the presence of a selected inhibitor at defined concentration. The procedure for detecting the inhibition of myeloperoxidase has been described in Van Antwerpen et al. (Development and validation of a screening procedure for the assessment of inhibition using a recombinant enzyme, Talanta, 2008, 75(2), 503-510) and is incorporated herewith by reference. Briefly, the reaction mixture contained the following reagents in a final volume of 200 μl: pH 7.4 phosphate buffer (PO4^3−10 mM/NaCl 300 mM), taurine (15 mM), a compound to be tested (up to 20 μM), and the fixed amount of the recombinant MPO (6.6 μl of MPO batch solution diluted 2.5 times, 40 nM). When necessary, the volume was adjusted with water. This mixture was incubated at 37° C. and the reaction initiated with 10.0 μl of H2O2 (100 μM). After 5 minutes, the reaction was stopped by the addition of 10 μl of catalase (8 U/μl). To determine the amount of taurine chloramines produced, 50 μl of 1.35 mM solution of thionitrobenzoic acid were added and the volume adjusted to 300 μl with water. Then, the absorbance of the solutions was measured at 412 nm with a microplate reader and the curve of the absorbance as a function of the inhibitor concentration was plotted. IC50 values against myeloperoxidase enzyme were then determined using standard procedures taking into account the absence of hydrogen peroxide as 100% of inhibition and the absence of inhibitors as 0% of inhibition.

MPO [2] = biological target: T1, MPO; test: Inhibition of LDL oxidation by MPO, ELISA with Mab AG9; format: biochemical; details: for remaining activity at 0.05 µM / remaining activity at 0.1 µM / remaining activity at 1 µM / LDL oxidation (%): 5 min
Experimental: Recombinant MPO was prepared as previously described. Each batch solution is characterized by its protein concentration (mg/ml), its activity (U/ml), and its specific activity (U/mg). The chlorination activity was determined according to Hewson and Hager. Human plasma served for the isolation of LDL by ultracentrifugation according to Havel et al. Before oxidation, the LDL fraction (1.019<d<1.067 g/ml) was desalted by two consecutive passages through PD10 gel-filtration columns (Amersham Biosciences, The Netherlands) using PBS buffer. The different steps were carried out in the dark and the protein concentration was measured by the Lowry assay for both MPO and LDL.
The LDL oxidation was carried out at 37° C. in a final volume of 500 μl. The reaction mixture contained the following reagents at the final concentrations indicated between brackets: pH 7.2, PBS buffer, MPO (1 μg/ml), LDL (1000 μg/ml), 2 μl HCl 1N (4 mM), a compound of formula (Ia) of the present invention (50, 100 and 1000 nM), and H2O2 (100 μM). The reaction was stopped after 5 min by cooling the tubes in ice. The assay was performed as described by Moguilevsky et al. (Moguilevsky N., Zouaoui Boudjeltia Z., Babar S., Delrée P., Legssyer I., Carpentier Y., Vanhaeverbeek M., Ducobu J. Monoclonal antibodies against LDL progressively oxidized by myeloperoxidase react with ApoB-100 protein moiety and human atherosclerotic lesions. Biochem. Biophys. Res. Commun. 2004, 323, 1223-1228) in a NUNC maxisorp plate (VWR, Zaventem, Belgium): 200 ng/well of LDL was coated overnight at 4° C. in a sodium bicarbonate pH 9.8 buffer (100 μl). Afterwards, the plate was washed with TBS 80 buffer and then saturated during 1 h at 37° C. with the PBS buffer containing 1% BSA (150 μl/well). After washing the wells twice with the TBS 80 buffer, the monoclonal antibody Mab AG9 (200 ng/well) obtained according to a standard protocol and as previously described was added as a diluted solution in PBS buffer with 0.5% BSA and 0.1% of Polysorbate 20. After incubation for 1 h at 37° C., the plate was washed four times with the TBS 80 buffer and a 3000 times diluted solution of Ig G anti-mouse Alkaline Phosphatase (Promega, Leiden, The Netherlands) in the same buffer was added (100 μl/well). The wells were washed again four times and a revelation solution (150 μl/well) containing 5 mg of para-nitrophenyl phosphate in 5 ml of diethanolamine buffer was added for 30 min at room temperature. The reaction was stopped with 60 μl/well of NaOH 3 N solution. The measurement of the absorbance was performed at 405 nm with a background correction at 655 nm with a Bio-Rad photometer for a 96-well plate (Bio-Rad laboratories, CA, USA). Results were expressed as means of the percentage of LDL oxidation for six independent measurements.

[3] = recombinant MPO 40 nM, pH 7.4 phosphate buffer, 37° C., H2O2 100 μM, 5 minutes
[4] = value given in nM in the text on FIG. 2
[5] = pH 7.2, compound 50 nM, MPO 1 μg/ml, LDL 1000 μg/ml, pH 7.2, 37° C., mean of six measurements, read-out: LDL oxidation (%)
[6] = pH 7.2, compound 100 nM, MPO 1 μg/ml, LDL 1000 μg/ml, pH 7.2, 37° C., mean of six measurements, read-out: LDL oxidation (%)
[7] = pH 7.2, compound 1000 nM, MPO 1 μg/ml, LDL 1000 μg/ml, pH 7.2, 37° C., mean of six measurements, read-out: LDL oxidation (%)
[8] = pH 7.2, read-out: LDL oxidation (%)
[9] = compound 50 nM, MPO 1 μg/ml, LDL 1000 μg/ml, pH 7.2, 37° C., mean of six measurements
[10] = compound 100 nM, MPO 1 μg/ml, LDL 1000 μg/ml, pH 7.2, 37° C., mean of six measurements
[11] = compound 1000 nM, MPO 1 μg/ml, LDL 1000 μg/ml, pH 7.2, 37° C., mean of six measurements

NCCCCc1c[nH]c2ccc(F)cc12 [Compound C, 3-(4-Aminobutyl)-5-fluoro-[1H]-indole oxalate]
1/IC50 (MPO [1]): 72 ± 19 µM⁻¹ | IC50 (MPO [1]; [3]): 15 nM | IC50 (MPO [1]; [4]): 15 ± 4 nM | remaining activity at 0.05 µM (MPO [2]; [5]): < 18.5% | remaining activity at 0.1 µM (MPO [2]; [6]): < 18.5% | remaining activity at 1 µM (MPO [2]; [7]): 6.1% | inhibition of LDL oxidation (in words) (MPO [2]; at low concentration): powerful performance

Fc1ccc2[nH]cc(CCN3CCCC3)c2c1 [Compound E, 5-Fluoro-3-[2-(1-pyrrolidinyl)ethyl]-[1H]-indole]
1/IC50 (MPO [1]): 32 ± 19 µM⁻¹ | IC50 (MPO [1]; [3]): 40 ± 30 nM | remaining activity at 0.05 µM (MPO [2]; [8]): 49.2% | remaining activity at 0.1 µM (MPO [2]; [8]): 47.9% | remaining activity at 1 µM (MPO [2]; [8]): 12.1%

NCCCc1c[nH]c2ccc(F)cc12 [Compound B, 3-(3-Aminopropyl)-5-fluoro-[1H]-indole]
1/IC50 (MPO [1]): 20 ± 4 µM⁻¹ | IC50 (MPO [1]; [3]): 50 ± 8 nM | remaining activity at 0.05 µM (MPO [2]; [5]): 26% | remaining activity at 0.1 µM (MPO [2]; [6]): 19% | remaining activity at 1 µM (MPO [2]; [7]): 9% | inhibition of LDL oxidation (in words) (MPO [2]; at low concentration): excellent results

CCN(CC)CCc1c[nH]c2ccc(F)cc12 [Compound F, N,N-Diethyl-3-(2-aminoethyl)-5-fluoro-[1H]-indole]
1/IC50 (MPO [1]): 7 ± 3 µM⁻¹ | IC50 (MPO [1]; [3]): 160 ± 80 nM | remaining activity at 0.05 µM (MPO [2]; [8]): 80.1% | remaining activity at 0.1 µM (MPO [2]; [8]): 60.2% | remaining activity at 1 µM (MPO [2]; [8]): 8%

N-Propyl-3-(3-aminopropyl)-5-fluoro-[1H]-indole [Compound J]
1/IC50 (MPO [1]): 6 ± 1 µM⁻¹ | IC50 (MPO [1]; [3]): 170 ± 30 nM | LDL oxidation (%) (MPO [2]; [9]): 79.9% | LDL oxidation (%) (MPO [2]; [10]): 42.5% | LDL oxidation (%) (MPO [2]; [11]): 5.6%

CN(C)CCc1c[nH]c2ccc(F)cc12 [Compound D, N,N-Dimethyl-3-(2-aminoethyl)-5-fluoro-[1H]-indole]
1/IC50 (MPO [1]): 14 ± 7 µM⁻¹ | IC50 (MPO [1]; [3]): 90 ± 60 nM | remaining activity at 0.05 µM (MPO [2]; [8]): 91.7% | remaining activity at 0.1 µM (MPO [2]; [8]): 64.2% | remaining activity at 1 µM (MPO [2]; [8]): 9.9%

N-Methyl-3-(3-aminopropyl)-5-fluoro-[1H]-indole tartrate [Compound G]
1/IC50 (MPO [1]): 6 ± 2 µM⁻¹ | IC50 (MPO [1]; [3]): 200 ± 200 nM | inhibition of LDL oxidation (in words) (MPO [2]; at low concentration): excellent results | LDL oxidation (%) (MPO [2]; [9]): 32.9% | LDL oxidation (%) (MPO [2]; [10]): 24.8% | LDL oxidation (%) (MPO [2]; [11]): 10.2%

NCCCCCCc1c[nH]c2ccc(F)cc12 [Compound L, 3-(6-Aminohexyl)-5-fluoro-[1H]-indole oxalate]
1/IC50 (MPO [1]): 3.8 ± 0.2 µM⁻¹ | IC50 (MPO [1]; [3]): 260 ± 10 nM | remaining activity at 0.05 µM (MPO [2]; [5]): 91.8% | remaining activity at 0.1 µM (MPO [2]; [6]): 56.1% | remaining activity at 1 µM (MPO [2]; [7]): 18.2%

NCCCCCc1c[nH]c2ccc(F)cc12 [Compound K, 3-(5-Aminopentyl)-5-fluoro-[1H]-indole oxalate]
1/IC50 (MPO [1]): 122 ± 15 µM⁻¹ | IC50 (MPO [1]; [3]): 8 nM | IC50 (MPO [1]; [4]): 8 ± 1 nM | remaining activity at 0.05 µM (MPO [2]; [5]): 29.5% | remaining activity at 0.1 µM (MPO [2]; [6]): 23.4% | remaining activity at 1 µM (MPO [2]; [7]): 3.2% | inhibition of LDL oxidation (in words) (MPO [2]; at low concentration): powerful performance

CN(C)CCCc1c[nH]c2ccc(F)cc12 [Compound H, N,N-Dimethyl-3-(3-aminopropyl)-5-fluoro-[1H]indole tartrate]
1/IC50 (MPO [1]): 11 ± 8 µM⁻¹ | IC50 (MPO [1]; [3]): 130 ± 90 nM | remaining activity at 0.05 µM (MPO [2]; [5]): 42.4% | remaining activity at 0.1 µM (MPO [2]; [6]): 39.7% | remaining activity at 1 µM (MPO [2]; [7]): 8.4%

NCCc1c[nH]c2ccc(F)cc12 [Compound A, 5-fluorotryptamine, reference compound]
1/IC50 (MPO [1]): 5 ± 0.6 µM⁻¹ | IC50 (MPO [1]; [3]): 200 nM | remaining activity at 0.05 µM (MPO [2]; [8]): 119% | remaining activity at 0.1 µM (MPO [2]; [8]): 111% | remaining activity at 1 µM (MPO [2]; [8]): 41.5% | inhibition of LDL oxidation (in words) (MPO [2]; irrespective of its concentration in the medium): poorly effective

Reference: US20120122948A1, “3-ALKYL-5-FLUOROINDOLE DERIVATIVES AS MYELOPEROXIDASE INHIBITORS” (UNIVERSITE LIBRE DE BEUXELLES, priority 2009, published 2012)
